Laboratory results published in PMC12203311, “Design, synthesis, in silico and in vitro evaluation of pyrrole–indole hybrids as dual tubulin and aromatase inhibitors with potent anticancer activities” (RSC Advances, 2025).

Tests used:
HL-60 (TB) = assay: NCI60 five-dose screen; type: cell-based; conditions: Homo sapiens, leukemia
MOLT-4 = assay: NCI60 five-dose screen; type: cell-based; conditions: Homo sapiens, MOLT-4, leukemia
RPMI-8226 = assay: NCI60 five-dose screen; type: cell-based; conditions: Homo sapiens, RPMI-8226, leukemia
HOP-62 = assay: NCI60 five-dose screen; type: cell-based; conditions: Homo sapiens, HOP-62, NSC lung cancer
HOP-92 = assay: NCI60 five-dose screen; type: cell-based; conditions: Homo sapiens, HOP-92, NSC lung cancer
NCI-H226 = assay: NCI60 five-dose screen; type: cell-based; conditions: Homo sapiens, NCI-H226, NSC lung cancer
NCI-H23 = assay: NCI60 five-dose screen; type: cell-based; conditions: Homo sapiens, NCI-H23, NSC lung cancer
NCI-H460 = assay: NCI60 five-dose screen; type: cell-based; conditions: Homo sapiens, NCI-H460, NSC lung cancer
HCC-2998 = assay: NCI60 five-dose screen; type: cell-based; conditions: Homo sapiens, HCC-2998, colon cancer
HCT-116 = assay: NCI60 five-dose screen; type: cell-based; conditions: Homo sapiens, HCT-116, colon cancer
HCT-15 = assay: NCI60 five-dose screen; type: cell-based; conditions: Homo sapiens, HCT-15, colon cancer
HT29 = assay: NCI60 five-dose screen; type: cell-based; conditions: Homo sapiens, HT-29, HT29, colon cancer
SF-295 = assay: NCI60 five-dose screen; type: cell-based; conditions: Homo sapiens, SF-295, CNS cancer
LOX IMVI = assay: NCI60 five-dose screen; type: cell-based; conditions: Homo sapiens, melanoma
M14 = assay: NCI60 five-dose screen; type: cell-based; conditions: Homo sapiens, M14, melanoma
MDA-MB-435 = assay: NCI60 five-dose screen; type: cell-based, human; conditions: Homo sapiens
SK-MEL-2 = assay: NCI60 five-dose screen; type: cell-based; conditions: Homo sapiens, SK-MEL-2, melanoma
UACC-257 = assay: NCI60 five-dose screen; type: cell-based; conditions: Homo sapiens, UACC-257, melanoma
IGROV1 = assay: NCI60 five-dose screen; type: cell-based; conditions: Homo sapiens, IGROV-1; IGROV1, ovarian cancer
OVCAR-3 = assay: NCI60 five-dose screen; type: cell-based; conditions: Homo sapiens, OVCAR-3, ovarian cancer
OVCAR-5 = assay: NCI60 five-dose screen; type: cell-based; conditions: Homo sapiens, OVCAR-5, ovarian cancer
OVCAR-8 = assay: NCI60 five-dose screen; type: cell-based; conditions: Homo sapiens, OVCAR-8, ovarian cancer
CAKI-1 = assay: NCI60 five-dose screen; type: cell-based; conditions: Homo sapiens, CAKI-1, renal cancer
UO-31 = assay: NCI60 five-dose screen; type: cell-based; conditions: Homo sapiens, UO-31, renal cancer
PC-3 = assay: NCI60 five-dose screen; type: cell-based; conditions: Homo sapiens, PC-3, prostate cancer
DU-145 = assay: NCI60 five-dose screen; type: cell-based; conditions: Homo sapiens, DU-145, prostate cancer
MDA-MB-231/ATCC = assay: NCI60 five-dose screen; type: cell-based; conditions: Homo sapiens, breast cancer
HS 578T = assay: NCI60 five-dose screen; type: cell-based; conditions: Homo sapiens, breast cancer
BT-549 = assay: NCI60 five-dose screen; type: cell-based; conditions: Homo sapiens, BT-549, breast cancer
MDA-MB-468 = assay: NCI60 five-dose screen; type: cell-based; conditions: Homo sapiens, MDA-MB-468, breast cancer
[1] = test system: T47D breast cancer cell line; assay: Cytotoxicity MTT assay, T47D; type: cell-based, human; conditions: Homo sapiens, T47D; MTT, 48 hours
Outline: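 10 000 cells/well, overnight attachment; compound 48 h in DMEM/10% FBS, 37 °C, 5% CO2. MTT 0.5 mg mL^−1, 3 h; formazan in DMSO; A570. % viability vs DMSO vehicle.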

[2] = read-out: LC50 (the source's name)

## CCc1c[nH]c(/C=N/NC(=O)c2[nH]c3ccc(Br)cc3c2-c2ccccc2)c1 [Derivative 3t, (E)-5-Bromo-N′-((4-ethyl-1H-pyrrol-2-yl)methylene)-3-phenyl-1H-indole-2-carbohydrazide]
HL-60 (TB)
  GI50: 0.237 µM
HL-60 (TB); [2]
  CC50: 91.9 µM
MOLT-4
  GI50: 0.399 µM
MOLT-4; [2]
  CC50: 94.2 µM
RPMI-8226
  GI50: 0.343 µM
RPMI-8226; [2]
  CC50: > 100 µM
HOP-62
  GI50: 1.35 µM
HOP-62; [2]
  CC50: 37.5 µM
HOP-92
  GI50: 2.57 µM
HOP-92; [2]
  CC50: 33 µM
NCI-H226
  GI50: 0.33 µM
NCI-H226; [2]
  CC50: 28 µM
NCI-H23
  GI50: 0.408 µM
NCI-H23; [2]
  CC50: 37.4 µM
NCI-H460
  GI50: 0.346 µM
NCI-H460; [2]
  CC50: 20.2 µM
HCC-2998
  GI50: 0.342 µM
HCC-2998; [2]
  CC50: 30.4 µM
HCT-116
  GI50: 0.385 µM
HCT-116; [2]
  CC50: 40.3 µM
HCT-15
  GI50: 0.319 µM
HCT-15; [2]
  CC50: 35.6 µM
HT29
  GI50: 0.308 µM
HT29; [2]
  CC50: 21 µM
SF-295
  GI50: 0.319 µM
SF-295; [2]
  CC50: 24.7 µM
LOX IMVI
  GI50: 0.427 µM
LOX IMVI; [2]
  CC50: 8.27 µM
M14
  GI50: 0.337 µM
M14; [2]
  CC50: 38.4 µM
MDA-MB-435; MDA-MB-435, MDA-MB-435, melanoma, read-out: LC50 (the source's name)
  CC50: 38.7 µM
MDA-MB-435; MDA-MB-435, melanoma
  GI50: 0.23 µM
SK-MEL-2
  GI50: 0.454 µM
SK-MEL-2; [2]
  CC50: 43.8 µM
UACC-257
  GI50: 1.23 µM
UACC-257; [2]
  CC50: 41.3 µM
IGROV1
  GI50: 0.888 µM
  LC50 (concentration causing 50% net cell kill): 48.6 µM
OVCAR-3
  GI50: 0.316 µM
OVCAR-3; [2]
  CC50: 41.7 µM
OVCAR-5
  GI50: 0.337 µM
OVCAR-5; [2]
  CC50: 37.2 µM
OVCAR-8
  GI50: 0.316 µM
OVCAR-8; [2]
  CC50: 26 µM
CAKI-1
  GI50: 1.05 µM
CAKI-1; [2]
  CC50: 34.4 µM
UO-31
  GI50: 1 µM
UO-31; [2]
  CC50: 40.7 µM
PC-3
  GI50: 0.529 µM
PC-3; [2]
  CC50: 57 µM
DU-145
  GI50: 0.38 µM
DU-145; [2]
  CC50: 39.5 µM
MDA-MB-231/ATCC
  GI50: 0.311 µM
MDA-MB-231/ATCC; [2]
  CC50: 42.4 µM
HS 578T
  GI50: 0.3 µM
HS 578T; [2]
  CC50: 87.3 µM
BT-549
  GI50: 0.39 µM
BT-549; [2]
  CC50: 23.9 µM
MDA-MB-468
  GI50: 0.263 µM
MDA-MB-468; [2]
  CC50: 9.22 µM
[1]
  IC50: 4.6 ± 2.9 µM
